Test results reported in ChEMBL document CHEMBL1201862, “PubChem BioAssay data set” (2004).
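Tested at 5 concentrations; 48 h exposure; 96-well plates; endpoints linearly interpolated, else capped at highest concentration. GI50 = concentration required for 50% inhibition of growth.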 Calls of active or inactive are those of the source. Rule as the data show it: active = GI50 up to about 1.1 µM and inactive = higher.

Experiments:
Assay in all cases: DTP human tumour cell line panel, 48 h
DLD-1 = test system: DLD-1
SNB-75 = test system: SNB-75
SK-OV-3 = test system: SK-OV-3
HCT-116 = test system: HCT-116
MCF7 = test system: MCF7
XF498 = test system: XF498
HOP-92 = test system: HOP-92
M19-MEL = test system: M19-MEL
OVCAR-4 = test system: OVCAR-4
NCI-H226 = test system: NCI-H226
Malme-3M = test system: Malme-3M
KM-20L2 = test system: KM-20L2
EKVX = test system: EKVX
A498 = test system: A498
CAKI-1 = test system: CAKI-1

Measured: GI50

O=C(NCCCCCCNC(=O)n1cc(F)c(=O)[nH]c1=O)NCCCOCCOCCCNC(=O)C(O)C(O)C(O)C(O)CO (stereo not given)
inactive: DLD-1 2.44 µM | SNB-75 > 2.5 µM | SK-OV-3 > 2.5 µM | HCT-116 > 2.05 µM | MCF7 > 2.27 µM | XF498 > 2.5 µM | HOP-92 > 2.5 µM | M19-MEL > 2.5 µM | OVCAR-4 > 2.5 µM | NCI-H226 > 2.5 µM | Malme-3M > 1.53 µM | KM-20L2 > 2.5 µM | EKVX > 2.5 µM | A498 > 2.5 µM

O=[N+]([O-])c1cc2ncc(-c3ccccc3)c(O)c2cc1/C(Cl)=C/c1ccccc1
inactive: DLD-1 3.83 µM | SNB-75 9.1 µM | SK-OV-3 27.1 µM | HCT-116 6.89 µM | CAKI-1 19.1 µM | MCF7 5.02 µM | XF498 8.24 µM | HOP-92 3.47 µM | M19-MEL 11.6 µM | OVCAR-4 3.2 µM | NCI-H226 13 µM | KM-20L2 17.7 µM | EKVX 5.57 µM | A498 16.1 µM

COc1cc(/N=N\c2cccc(S(=O)(=O)O)c2)c(C)cc1/N=N\c1ccc(/C=C/c2ccc(/N=[N+](/[O-])c3ccc(/C=C/c4ccc(/N=N\c5cc(C)c(/N=N/c6cccc(S(=O)(=O)O)c6)cc5OC)cc4)c(S(=O)(=O)O)c3)cc2S(=O)(=O)O)cc1
inactive: DLD-1 > 100 µM | SNB-75 > 100 µM | SK-OV-3 > 100 µM | HCT-116 > 100 µM | MCF7 > 100 µM | XF498 > 100 µM | HOP-92 > 77.3 µM | M19-MEL > 100 µM | OVCAR-4 > 66.7 µM | NCI-H226 > 100 µM | Malme-3M > 100 µM | KM-20L2 > 100 µM | EKVX > 100 µM | A498 > 100 µM

N=C(N)NS(=O)(=O)c1ccc(Nc2c3ccccc3nc3c(C(=O)N4CCN(CCO)CC4)ccc(Cl)c23)cc1
inactive: DLD-1 > 100 µM | SNB-75 > 100 µM | SK-OV-3 > 100 µM | HCT-116 > 100 µM | CAKI-1 > 100 µM | XF498 > 100 µM | HOP-92 > 100 µM | M19-MEL > 100 µM | OVCAR-4 > 100 µM | NCI-H226 > 100 µM | Malme-3M > 100 µM | KM-20L2 > 100 µM | A498 > 100 µM

CC(=O)/C=C/c1c[nH]c(=O)[nH]c1=O
inactive: DLD-1 179 µM | SNB-75 217 µM | SK-OV-3 166 µM | HCT-116 128 µM | CAKI-1 74.3 µM | MCF7 157 µM | XF498 38.4 µM | HOP-92 8.13 µM | M19-MEL 390 µM | OVCAR-4 508 µM | NCI-H226 204 µM | Malme-3M 243 µM | KM-20L2 213 µM | EKVX 239 µM | A498 214 µM
